Measured values from ChEMBL document CHEMBL3603760, “Potential therapeutic agents for circulatory diseases from Bauhinia glauca Benth.subsp. pernervosa. (Da Ye Guan Men)” (Bioorg Med Chem Lett, 2015).
pIC50: −log10 of the molar value. The source made the active and inactive calls. No cut-off for these calls is given here.

Assays:
Type in all cases: functional
[1] = tested on: Platelet; assay: (§1) Anti-platelet activity in rat platelet rich plasma assessed as inhibition of ADP and calcium-induced platelet aggregation at 100 uM pre-incubated at 37 degC for 10 mins and measured 30 mins after ADP and calcium addition
[2] = as §1
[3] = Anti-platelet activity in rat platelet rich plasma assessed as inhibition of ADP and calcium-induced platelet aggregation incubated at 37 degC for 10 mins and measured 30 mins after ADP and calcium addition
[4] = tested on: Platelet; assay: Potency index, ratio of anti-platelet activity for aspirin to test compound in rat platelet rich plasma
[5] = Anti-platelet activity in rat platelet rich plasma assessed as inhibition of ADP and calcium-induced platelet aggregation at 1650 uM incubated at 37 degC for 10 mins and measured 30 mins after ADP and calcium addition

Row | SMILES | inhibition [1] | inhibition at 100 µM [2] [%] | also measured
1 | COc1cc(-c2oc3cc(O)cc(O)c3c(=O)c2O)ccc1O | inactive |  | 
2 | O=C1C[C@@H](c2ccc(O)c(O)c2)Oc2cc(O)cc(O)c21 [ERIODICTYOL] |  | 24.5 | 
3 | COc1cc(-c2cc(=O)c3c(O)cc(O)cc3o2)ccc1O [CHRYSOERIOL] |  | 92.3 | pIC50 [3]: 4.57; Ratio [4]: 2
4 | CC(=O)Oc1ccccc1C(=O)O [ASPIRIN] |  |  | inhibition at 1650 µM [5]: 41.5%
5 | COc1c(O)cc(C=O)cc1O |  | 20.8 | 
6 | O=c1c(O[C@@H]2OC[C@H](O)[C@H](O)[C@H]2O)c(-c2ccc(O)c(O)c2)oc2cc(O)cc(O)c12 [GUAJAVERIN] |  | 7.29 | 
7 | COc1cc(O[C@@H]2O[C@H](COC(=O)c3cc(O)c(O)c(O)c3)[C@@H](O)[C@H](O)[C@H]2O)ccc1O |  | 22.1 | 
8 | COc1c(-c2ccc(O)c(O)c2)oc2cc(O)ccc2c1=O | inactive |  | 
9 | Cc1c(O)cc2oc(-c3ccc(O)cc3)c(O)c(=O)c2c1O |  | 26 | 
10 | O=c1c(O[C@@H]2O[C@H](CO)[C@H](O)[C@H](O)[C@H]2O)c(-c2ccc(O)c(O)c2)oc2cc(O)cc(O)c12 [HYPEROSIDE] |  | 35.2 | 
11 | O=c1cc(-c2ccc(O)c(O)c2)oc2cc(O)ccc12 |  | 13.7 | 
12 | O=C(O)/C=C/c1ccccc1 [CINNAMIC ACID] |  | 8.69 | 
13 | O=C(O)c1ccc(O)c(O)c1 | inactive |  | 
14 | O=c1c(O[C@@H]2O[C@H](CO)[C@@H](O)[C@H](O)[C@H]2O)c(-c2ccc(O)c(O)c2)oc2cc(O)cc(O)c12 [ISOQUERCETIN] |  | 36.2 | 
15 | Cc1c(O)c(C)c2c(c1O)C(=O)C[C@@H](c1ccc(O)cc1)O2 | inactive |  | 
16 | COc1c(C)c(O)c2c(=O)c(O)c(-c3ccc(O)cc3)oc2c1C | inactive |  | 
17 | C[C@@H]1O[C@@H](Oc2cc(O)c3c(=O)cc(-c4cc(O)c(O)c(O)c4)oc3c2)[C@H](O)[C@H](O)[C@H]1O |  | 41.3 | 
18 | COc1cc(O[C@@H]2O[C@H](COC(=O)c3cc(O)c(O)c(O)c3)[C@@H](O)[C@H](O)[C@H]2O)cc(O)c1OC | inactive |  | 
19 | O=c1cc(-c2ccc(O)c(O)c2)oc2cc(O)cc(O)c12 [LUTEOLIN] |  | 26.6 | 
20 | C[C@@H]1O[C@@H](Oc2c(-c3ccc(O)c(O)c3)oc3cc(O)cc(O)c3c2=O)[C@H](O)[C@H](O)[C@H]1O [QUERCITRIN] |  | 2.13 | 
21 | COc1c(-c2ccc(O)c(O)c2)oc2cc(O)cc(O)c2c1=O | inactive |  | 
22 | COc1cc(C(=O)O)cc(OC)c1O | inactive |  | 
23 | COc1ccc(C(=O)O)cc1O | inactive |  | 
24 | O=c1c(O)c(-c2ccc(O)c(O)c2)oc2cc(O)cc(O)c12 [QUERCETIN] |  | 16.8 | 
25 | O=c1c(O)c(-c2ccc(O)cc2)oc2cc(O)cc(O)c12 | inactive |  | 
26 | COC(=O)c1cc(O)c(O)c(O)c1 [GALLIC ACID METHYL ESTER] |  | 16.2 | 
27 | C[C@H]1O[C@@H](Oc2c(-c3cc(O)c(O)c(O)c3)oc3cc(O)cc(O)c3c2=O)[C@@H](O)[C@@H](O)[C@@H]1O | inactive |  | 
28 | O=C(O)c1cc(O)c(O)c(O)c1 | inactive |  | 
29 | Oc1cc(O)c2c(c1)O[C@H](c1ccc(O)c(O)c1)[C@@H](O)C2 [CIANIDANOL] |  | 35.1 | 
30 | O=c1ccoc2cc(O)cc(O)c12 |  | 6.83 | 
